In patent publication US5366982A (priority 1990, dated 1994):

Target: leukotriene B4 receptors (Cavia porcellus, UniProt H0VYV8)
Experiment: biochemical
Format: binding, guinea-pig
Conditions: for IC50: Table XIX, guinea-pig spleen membranes, tritium-labelled LTB4, read-out: IC50 Binding (Cheng); for inhibition at 10 µM: read-out: Binding (Cheng) % Inhibition at 10 μM

Chain of leukotriene B4 receptors (H0VYV8 1-348): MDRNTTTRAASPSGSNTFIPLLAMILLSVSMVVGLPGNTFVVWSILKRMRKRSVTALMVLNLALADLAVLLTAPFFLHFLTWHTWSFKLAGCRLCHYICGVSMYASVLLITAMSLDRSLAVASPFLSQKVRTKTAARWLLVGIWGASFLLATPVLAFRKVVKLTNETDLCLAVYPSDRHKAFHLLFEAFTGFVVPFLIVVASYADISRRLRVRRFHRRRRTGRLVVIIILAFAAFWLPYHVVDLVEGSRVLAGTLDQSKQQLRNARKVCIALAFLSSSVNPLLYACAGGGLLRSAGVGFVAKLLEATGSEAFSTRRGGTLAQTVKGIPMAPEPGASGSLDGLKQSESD

Compound	IC50	inhibition at 10 µM
O=C(O)COCCCOc1cc(-c2ccccc2)cc(-c2ccccc2)n1	100 nM	–
O=C(O)CCCCCCCSc1nc(-c2ccccc2)c2ccccc2n1	9000 nM	–
O=C(O)CCCCCCCSc1ncc(-c2ccccc2)c(-c2ccccc2)n1	3000 nM	–
O=C(O)CCCCCCCOc1ccc(-c2ccccc2)c(-c2ccccc2)n1	10000 nM	–
O=C(O)CCCCCCCOc1cccc(-c2ccccc2)n1	6000 nM	–
6-[(6-cyclopropyl-5-phenyl-2-pyridyl)oxy]hexanoic acid	40 nM	–
O=C(CCCCCOc1cc(-c2ccccc2)c2ccccc2n1)N1CCCC1 [1-[6-(4-phenyl-2-quinolyloxy)hexanoyl]pyrrolidine]	–	12%
CC(C)(CCCCOc1cc(-c2ccccc2)c2ccccc2n1)C(=O)O [2,2-dimethyl-6-[(4-phenyl-2-quinolyl)oxy]hexanoic acid]	150 nM	–
CC(C)(CCCCSc1cc(-c2ccccc2)c2ccccc2n1)C(=O)O [2,2-dimethyl-6-[(4-phenyl-2-quinolyl)thio]hexanoic acid]	–	33%
CC(C)(CCCCOc1cc(-c2ccccc2)c2cc(Cl)ccc2n1)C(=O)O [2,2-dimethyl-6-[(6-chloro-4-phenyl-2-quinolyl)oxy}hexanoic acid]	2500 nM	–
Cc1ccc2c(-c3ccccc3)cc(OCCCCC(C)(C)C(=O)O)nc2c1 [2,2-dimethyl-6-[(7-methyl-4-phenyl-2-quinolyl)oxy]hexanoic acid]	2000 nM	–
CC(C)(CCCCOc1cc(-c2cccs2)c2ccccc2n1)C(=O)O [2,2-dimethyl-6-{[4-(2-thienyl)-2-quinolyl]oxy}hexanoic acid]	200 nM	–
CC(C)(CCCCOc1cc(-c2ccc(Cl)c(Cl)c2)c2ccccc2n1)C(=O)O [2,2-dimethyl-6-{[4-(3,4-dichlorophenyl)-2-quinolyl]oxy}hexanoic acid]	3500 nM	–
CC(C)(CCCCOc1cc(-c2cccc(Cl)c2)c2ccccc2n1)C(=O)O [2,2-dimethyl-6-{[4-(3-chlorophenyl)-2-quinolyl]oxy}hexanoic acid]	1100 nM	–
COc1cccc(-c2cc(OCCCCC(C)(C)C(=O)O)nc3ccccc23)c1 [2,2-dimethyl-6-{[4-(3-methoxyphenyl)-2-quinolyl]oxy}hexanoic acid]	300 nM	–
Cc1cccc(-c2cc(OCCCCC(C)(C)C(=O)O)nc3ccccc23)c1 [2,2-dimethyl-6-{[4-(3-tolyl)-2-quinolyl]oxy}hexanoic acid]	3500 nM	–
CC(C)(CCCCOc1cc(-c2ccc(N)cc2)c2ccccc2n1)C(=O)O [2,2-dimethyl-6-{[4-(4-aminophenyl)-2-quinolyl]oxy}hexanoic acid]	40 nM	–
CC(C)(CCCCOc1cc(-c2ccc(Cl)cc2)c2ccccc2n1)C(=O)O [2,2-dimethyl-6-{[4-(4-chlorophenyl)-2-quinolyl]oxy}hexanoic acid]	15 nM	–
CC(C)(CCCCOc1cc(-c2ccc(Cl)cc2)cc(-c2ccccc2)n1)C(=O)O [2,2-dimethyl-6-{[4-(4-chlorophenyl)-6-phenyl-2-pyridyl]oxy}hexanoic acid]	100 nM	–
CN(C)c1ccc(-c2cc(OCCCCC(C)(C)C(=O)O)nc3ccccc23)cc1 [2,2-dimethyl-6-{[4-(4-dimethylaminophenyl)-2-quinolyl]oxy}hexanoic acid]	30 nM	–
CC(C)(CCCCOc1cc(-c2ccc(F)cc2)c2ccccc2n1)C(=O)O [2,2-dimethyl-6-{[4-(4-fluorophenyl-2-quinolyl]oxy}hexanoic acid]	150 nM	–
CC(C)(CCCCOc1cc(-c2ccc([N+](=O)[O-])cc2)c2ccccc2n1)C(=O)O [2,2-dimethyl-6-{[4-(4-nitrophenyl)-2-quinolyl]oxy}hexanoic acid]	150 nM	–
Cc1ccc(-c2cc(OCCCCC(C)(C)C(=O)O)nc3ccccc23)cc1 [2,2-dimethyl-6-{[4-(4-tolyl)-2-quinolyl]oxy}hexanoic acid]	30 nM	–

Results, then the compound that gave them:

IC50	inhibition at 10 µM	Compound
300 nM	–	CC(C)(CCCCOc1cc(-c2ccc(C(F)(F)F)cc2)c2ccccc2n1)C(=O)O [2,2-dimethyl-6-{[4-(4-trifluoromethylphenyl)-2-quinolyl]oxy}hexanoic acid]
2500 nM	–	CC(C)(CCCCCCSc1ncc(-c2ccccc2)c(-c2ccccc2)n1)C(=O)O [2,2-dimethyl-8-(4,5-diphenyl-2-pyrimidylthio)octanoic acid]
22 nM	–	CC(C)(CCCCCCOc1cc(-c2ccccc2)cc(-c2ccccc2)n1)C(=O)O [2,2-dimethyl-8-[(4,6-diphenyl-2-pyridyl)oxy]octanoic acid]
110 nM	–	CCC(C)(CCCCOc1cc(-c2ccccc2)c2ccccc2n1)C(=O)O (stereo not drawn) [2-ethyl-2-methyl-6-[(4-phenyl-2-quinolyl)oxy]hexanoic acid]
200 nM	–	CCC(CCCCOc1cc(-c2ccc(Cl)cc2)c2ccccc2n1)C(=O)O (stereo not drawn) [2-ethyl-6-{[4-(4-chlorophenyl)-2-quinolyl]oxy}hexanoic acid]
550 nM	–	CC(CCCCOc1cc(-c2ccccc2)c2ccccc2n1)C(=O)O (stereo not drawn) [2-methyl-6-[(4-phenyl-2-quinolyl)oxy]hexanoic acid]
30 nM	–	CC(CCCCOc1cc(-c2ccc(Cl)cc2)c2ccccc2n1)C(=O)O (stereo not drawn) [2-methyl-6-{[4-(4-chlorophenyl)-2-quinolyl]oxy}hexanoic acid]
16 nM	–	COc1ccc(-c2cc(OCCCCC(C)C(=O)O)nc3ccccc23)cc1 (stereo not drawn) [2-methyl-6-{[4-(4-methoxyphenyl)-2-quinolyl]oxy}hexanoic acid]
> 1000 nM	–	O=C(CCCOc1cc(-c2ccccc2)cc(-c2ccccc2)n1)Nc1ccccc1 [4-[(4,6-diphenyl-2-pyridyl)oxy]butanilide]
300 nM	–	O=C(O)CCCOc1cc(-c2ccccc2)cc(-c2ccccc2)n1 [4-[(4,6-diphenyl-2-pyridyl)oxy]butanoic acid]
400 nM	–	CC(C)(CCCCOc1cc(-c2ccccc2)c2ccccc2n1)c1nnn[nH]1 [5-{1,1-dimethyl-5-[(4-phenyl-2-quinolyl)oxy]pentyl}-[1H]-tetrazole]
30 nM	–	CC(C)(CCCCOc1cc(-c2ccc(Cl)cc2)c2ccccc2n1)c1nnn[nH]1 [5-{1,1-dimethyl-5-{[4-(4-chlorophenyl)-2-quinolyl]oxy}pentyl}-[1H]-tetrazole]
500 nM	–	c1ccc(-c2cc(OCCCCCc3nnn[nH]3)nc3ccccc23)cc1 [5-{5-[(4-phenyl-2-quinolyl)oxy]pentyl}-[1H]-tetrazole]
25 nM	–	Clc1ccc(-c2cc(OCCCCCc3nnn[nH]3)nc3ccccc23)cc1 [5-{5-{[4-(4-chlorophenyl)-2-quinolyl]oxy}pentyl}-[1H]-tetrazole]
2 nM	–	c1ccc(-c2cc(-c3ccc4c(c3)OCO4)cc(OCCCCCc3nnn[nH]3)n2)cc1 [5-{5-{[6-phenyl-4-(3,4-methylenedioxyphenyl)-2-pyridyl]oxy}pentyl}-1H-tetrazole]
8 nM	–	O=C(O)CCCCCOc1cc(-c2ccccc2)cc(-c2ccccc2)c1 [6-(3,5-diphenyl-phenoxy)hexanoic acid]
–	35%	O=C(O)CCCCCOc1ncc(-c2ccccc2)c(-c2ccccc2)n1 [6-(4,5-diphenyl-2-pyrimidyloxy)hexanoic acid]
8000 nM	–	O=C(O)CCCCCSc1ncc(-c2ccccc2)c(-c2ccccc2)n1 [6-(4,5-diphenyl-2-pyrimidylthio)hexanoic acid]
–	48%	O=C(O)CCCCCOc1ncc(-c2ccc(Cl)cc2)c(-c2ccc(Cl)cc2)n1 [6-[4,5-bis-(4-chlorophenyl)-2-pyrimidyloxy]hexanoic acid]
